In patent US20250382556A1, “MODULATION OF THE BRANCHED-CHAIN METABOLITE CONTENT OF FRUITS AND VEGETABLES” (BOARD OF TRUSTEES OF MICHIGAN STATE UNIVERSITY, priority 2024, published 2025):

Tests used:
[1] = system: flowering quince fruit; assay: Headspace volatile emissions of flowering quince fruit treated with AHAS inhibitor; format: in vivo, Chaenomeles x superba; design: key to butyl acetate emissions compared to control: —: Dash indicates no significant difference between treatments
Description: Whole apple fruit, freshly harvested and at an early stage of ripening (‘ripening’), were held at room temperature (22° C.) and rubbed daily with 3 mL of a freshly made 1mM solution of the inhibitor rimsulfuron (N-((4,6-dimethoxypyrimidin-2-yl)aminocarbonyl)-3-(ethylsulfonyl)-2-pyridinesulfonamide, made from DuPont MATRIX® SG, 25% w/w active ingredient; 0.1% Tween 20) or water solution containing 0.1% Tween 20 before preparation with further treatments. Flowering quince fruit were smaller than the apple fruit and had 2 mL of the control and treatment solutions applied daily at 22° C. ‘Gala’, ‘Empire’, and ‘Jonagold’ apple fruit were treated for four, nine, and seven days before further preparation, respectively. Flowering quince fruit were treated for six days before analysis. Headspace volatile emissions were monitored for three or four representative fruits during the incubation/treatment period to determine appropriate times for further treatments. During method testing, 1 mM solutions of the imidazolinone imazamox was also assessed with apple fruit (2-[4,5-dihydro-4-methyl-4-(1-methylethyl)-5-oxo-1H-imidazol-2-yl]-5-(methoxymethyl)-3-pyridinecarboxylic acid, made from RAPTOR®, 12.1% w/w active ingredient; 0.1% Tween 20).
Headspace volatiles from small tissue samples incubated in 22 mL vials were adsorbed for 30 s using a solid-phase micro extraction (SPME) fiber (65 μm PDMS-DVB; Supelco Analytical). The SPME fiber was then directly desorbed for 1 min in the injection port of a gas chromatograph (GC; HP-6890, Hewlett-Packard) coupled to a time-of-flight mass spectrometer (MS; Pegasus II, LECO). Whole fruits and banana slices were incubated for 20 min at room temperature (22° C.) in 1-L sealed Teflon jars before a 15-s, or 3-min adsorption and 1- or 2-min desorption. Adsorption times were adjusted to ensure instrument responses were in the linear range. All desorbed volatiles were cryofocused at the beginning of the column by immersing said region of the column in liquid nitrogen. After the desorption period, the run was initiated and the liquid nitrogen removed.
The conditions of the system were as follows. Injection port: 200° C., splitless, ultra-purified helium (99.999%) carrier gas, front inlet flow 1.5 mL·min^−1 constant, 10 mL·min^−1 purge flow, 11.5 mL·min^−1 total flow. Oven: initial temperature 40° C. for 0 min, ramped by 43° C.·min^−1 to 185° C. for 0 min. Column: HP-5 MS, 30 m×0.25 mm i.d., 0.25 μm film thickness (Agilent). Transfer line temperature 225° C. MS: Electron ionization (−70 eV), ion source temperature 200° C., solvent delay 50 sec, m/z range 29 to 400, detector voltage 1500 V, data collection rate 20 Hz.
Compounds were identified by comparison of the retention time and mass spectrum against authenticated reference standards and spectra (National Institute of Standards and Technology Mass Spectral Search Program Version 2.0, 2001). Volatiles were quantified by calibration with a standard of 59 authenticated, high-purity compounds (Sigma-Aldrich Co. and Fluka Chemical) including the target compounds. The standard was made by placing 0.5 μL of an equal-part mixture of the neat compounds onto a disc of filter paper before quickly placing the filter paper into a 4-L sealed flask fitted with a Mininert valve (for SPME fiber access, and allowed to vaporize for at least 6 hours. SPME adsorption and desorption times of the standard matched that of the samples quantified (e.g., 30-s adsorption, 1 min desorption when quantifying samples in 22-mL vials).
Statistical analysis was performed using SciPy (v1.6.2), RStudio (v2023.03.0+386), or Microsoft Excel (v16.89). Against a specified value: one-tailed t-test Against two treatments: paired t-test for banana, two-sample t-test for apple and flowering quince. Against more than two treatments: Tukey's test following significant ANOVA. Analyses of branched-chain amino acids were one-tailed, all other metabolites were two-tailed. […]

[2] = system: ripe ‘Red Delicious’ apple fruit; assay: Headspace 2-methylbutanoate esters of ripe apple fruit, time course; format: in vivo, Malus x domestica Borkh.; settings: within three days of treatment
Description: ‘Red Delicious’ apple fruit held in refrigerated air for 5 months (see above) plus 1 day at 22° C. and at an advanced ripeness stage (‘ripe’) were treated with rimsulfuron (1 mM) with 0.2% Tween 20 on day 0 of the study and for the next three consecutive days as above described. The fruit were evaluated daily for volatile emissions (see below) for eight days. On days 0, 2, 4, and 7, representative treated and untreated fruit were selected for tissue collection for metabolite analysis (see below). On day 7, samples of fruit peel were fed, as described above, with water or 20 mM isoleucine or α-keto-β-methylvalerate.
Headspace volatiles from small tissue samples incubated in 22 mL vials were adsorbed for 30 s using a solid-phase micro extraction (SPME) fiber (65 μm PDMS-DVB; Supelco Analytical). The SPME fiber was then directly desorbed for 1 min in the injection port of a gas chromatograph (GC; HP-6890, Hewlett-Packard) coupled to a time-of-flight mass spectrometer (MS; Pegasus II, LECO). […]
Compounds were identified by comparison of the retention time and mass spectrum against authenticated reference standards and spectra (National Institute of Standards and Technology Mass Spectral Search Program Version 2.0, 2001). Volatiles were quantified by calibration with a standard of 59 authenticated, high-purity compounds (Sigma-Aldrich Co. and Fluka Chemical) including the target compounds. […]

[3] = Dr. Banks Pink flowering quince
[4] = Dr. Banks Pink flowering quince peel, 1 mM daily, six days

SMILES: CCS(=O)(=O)c1cccnc1S(=O)(=O)NC(=O)Nc1nc(OC)cc(OC)n1 [rimsulfuron, N-((4,6-dimethoxypyrimidin-2-yl)aminocarbonyl)-3-(ethylsulfonyl)-2-pyridinesulfonamide]
- butyl acetate, ethyl butanoate, estragole, or linalool versus untreated [1, 3]: No difference
- less 2-methylpropyl acetate and 2-methylbutyl acetate than untreated fruits [1, 3]: 94.6%
- more propyl acetate than untreated fruits [1, 3]: 22.7 fold
- 2-methylbutyl acetate (ile) emissions compared to control [1, 4]: 5.2 ± 3.9%
- 2-methylpropyl acetate (val) emissions compared to control [1, 4]: 1.1 ± 1.4%
- butyl acetate emissions compared to control [1, 4]: —
- propyl acetate emissions compared to control [1, 4]: 2265.0 ± 869.0%
- sum of anteiso- and iso-branched-chain esters emissions compared to control [1, 4]: 3.0 ± 2.4%
- headspace content of 2-methylbutanoate esters, of control fruits [2]: 15.0%
